The values below come from patent US20220402882A1, “HERBICIDAL COMPOUNDS” (SYNGENTA CROP PROTECTION AG, priority 2019, published 2022).

The subject of assay [1] is Abutilon theophrasti (ABUTH). Briefly: Pre-emergence glasshouse herbicide test. It is filed as in vivo. The settings on record: 125 g/h, evaluated after 13 days. The method in brief: (§1)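 Scores are percentage plant damage 13 days after treatment, binned 5=80-100%, 4=60-79%, 3=40-59%, 2=20-39%, 1=0-19%. Compounds were sprayed at 125 g/h unless otherwise indicated, either one day after sowing or on 8-day-old plants, under 24/16 °C, 14 h light and 65% humidity.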

Assay [2] has as its system Amaranthus retoflexus (AMARE). Briefly: Pre-emergence glasshouse herbicide test. It is filed as in vivo. The settings on record: 125 g/h, evaluated after 13 days. The method in brief: as §1
Assay [3] relates to Echinochloa crus-galli (ECHCG). Briefly: Pre-emergence glasshouse herbicide test. The settings on record: 125 g/h, evaluated after 13 days. Type of assay: in vivo. The method in brief: as §1
Assay [4] concerns Ipomoea hederacea (IPOHE). Briefly: Pre-emergence glasshouse herbicide test. The settings on record: 125 g/h, evaluated after 13 days. It is filed as in vivo. The method in brief:
as §1

Assay [5] deals with Setaria faberi (SETFA). Briefly: Pre-emergence glasshouse herbicide test. Type of assay: in vivo. The settings on record: 125 g/h, evaluated after 13 days. The method in brief:
as §1

Assay [6] has as its system Abutilon theophrasti (ABUTH). Nature of the assay: Post-emergence glasshouse herbicide test. It is filed as in vivo. The settings on record: 125 g/h, evaluated after 13 days. The method, boiled down: as §1
The test system of assay [7] is Amaranthus retoflexus (AMARE). Briefly: Post-emergence glasshouse herbicide test. The settings on record: 125 g/h, evaluated after 13 days. It is filed as in vivo. The method in brief:
as §1

For assay [8], the system named is Echinochloa crus-galli (ECHCG). Briefly: Post-emergence glasshouse herbicide test. Type of assay: in vivo. The settings on record: 125 g/h, evaluated after 13 days. The method, boiled down: as §1
Assay [9] deals with Ipomoea hederacea (IPOHE). Nature of the assay: Post-emergence glasshouse herbicide test. It is filed as in vivo. The settings on record: 125 g/h, evaluated after 13 days. The method, boiled down: as §1
The subject of assay [10] is Setaria faberi (SETFA). Briefly: Post-emergence glasshouse herbicide test. It is filed as in vivo. The settings on record: 125 g/h, evaluated after 13 days. The method in brief:
as §1

The test system of another assay is DIGSA. Nature of the assay: Comparative experiment, POST application. Type of assay: in vivo. How it is done:
(§2) A comparative experiment is conducted to show the advantage provided by the compounds of the present invention. Thus the biological performance of representative compounds […] Compound 4-460 of the type referred to in WO2012/028579. Results are given as (%) phytotoxicity observed.

A further assay relates to ZEAMX/maize. Nature of the assay: Comparative experiment, POST application. It is filed as in vivo. The settings on record: crop. How it is done: as §2
A further assay relates to IPOHE. Briefly: Comparative experiment, POST application. Type of assay: in vivo, Ipomoea hederacea. How it is done: as §2
The subject of a further assay is ECHCG. Nature of the assay: Comparative experiment, POST application. Type of assay: in vivo, Echinochloa crus-galli. The protocol: as §2
The next assay relates to SETFA. Briefly: Comparative experiment, POST application. It is filed as in vivo, Setaria faberi. The protocol:
as §2

For another assay, the system named is ABUTH. Briefly: Comparative experiment, POST application. Type of assay: in vivo, Abutilon theophrasti. The protocol: as §2
A further assay concerns AMARE. Briefly: Comparative experiment, POST application. It is filed as in vivo, Amaranthus retoflexus. The protocol: as §2

`Cn1nnnc1NC(=O)c1ccc(OC(F)F)c(S(C)(=O)=O)c1Cl` [Compound 1.003, 2-chloro-4-(difluoromethoxy)-3-methylsulfonyl-N-(1-methyltetrazol-5-yl)benzamide]: the “percentage damage caused to the plant, ABUTH” value in [1] and in assay [6] was 5 (5=80-100%) in each case. The “percentage damage caused to the plant, AMARE” value in [2] and in assay [7] was 5 (5=80-100%) each time. The “percentage damage caused to the plant, ECHCG” value in [3] and in [8] was 5 (5=80-100%) throughout. Also, the “percentage damage caused to the plant, IPOHE” value in [4] is 1 (1=0-19%); in assay [9], 5 (5=80-100%). Also, the “percentage damage caused to the plant, SETFA” value with Setaria faberi (SETFA) [5] and in the assay on Setaria faberi (SETFA) [10] was 5 (5=80-100%) in each case. The “(%) phytotoxicity observed, DIGSA” value with DIGSA (rate 15 g/ha) and in the assay on DIGSA (rate 30 g/ha) was 80% each time. Moreover, the “(%) phytotoxicity observed, ZEAMX” value with ZEAMX/maize (rate 15 g/ha) and in the assay on ZEAMX/maize (rate 30 g/ha) was 0% in each case. For the same compound, the “(%) phytotoxicity observed, IPOHE” value in the assay with IPOHE (rate 15 g/ha) and in the assay on IPOHE (rate 30 g/ha) was 100% each time. In addition, the “(%) phytotoxicity observed, ECHCG” value in the assay on ECHCG (rate 15 g/ha) and with ECHCG (rate 30 g/ha) was 90% throughout. In addition, the “(%) phytotoxicity observed, SETFA” value came out at 80% with SETFA (rate 15 g/ha) and 90% in the assay with SETFA (rate 30 g/ha). Also, the figures for the “(%) phytotoxicity observed, ABUTH” value with ABUTH (rate 15 g/ha) and in the assay on ABUTH (rate 30 g/ha) were 90% and 100%, respectively. The “(%) phytotoxicity observed, AMARE” value in the assay on AMARE (rate 15 g/ha) and in the assay on AMARE (rate 30 g/ha) was 100% each time.
Consider `CCS(=O)(=O)c1c(OC(F)(F)F)ccc(C(=O)Nc2nnc(C)o2)c1C` [Compound 2.011], for which the “percentage damage caused to the plant, ABUTH” value in assay [1] and in assay [6] was 5 (5=80-100%) throughout. Further, the “percentage damage caused to the plant, AMARE” value in [2] and in assay [7] was 5 (5=80-100%) each time. In addition, the “percentage damage caused to the plant, ECHCG” value in assay [3] and in [8] was 5 (5=80-100%) each time. Moreover, the figures for the “percentage damage caused to the plant, IPOHE” value in assay [4] and in [9] were 5 (5=80-100%) and 4 (4=60-79%), respectively. Also, the “percentage damage caused to the plant, SETFA” value with Setaria faberi (SETFA) [5] and with Setaria faberi (SETFA) [10] was 5 (5=80-100%) throughout.
With `CCSc1c(OC(F)F)ccc(C(=O)Nc2nnc(C)o2)c1Cl` [Compound 2.012], the “percentage damage caused to the plant, ABUTH” value in [1] is reported as 4 (4=60-79%); in assay [6], 5 (5=80-100%). The “percentage damage caused to the plant, AMARE” value in assay [2] and in [7] was 5 (5=80-100%) in each case. The “percentage damage caused to the plant, ECHCG” value in assay [3] and in assay [8] was 5 (5=80-100%) throughout. In addition, the “percentage damage caused to the plant, IPOHE” value in [4] was 3 (3=40-59%); in assay [9], 4 (4=60-79%). Also, the “percentage damage caused to the plant, SETFA” value in the assay on Setaria faberi (SETFA) [5] and in the assay with Setaria faberi (SETFA) [10] was 5 (5=80-100%) in each case.
As for `CCS(=O)(=O)c1c(OC(F)F)ccc(C(=O)Nc2nnc(C)o2)c1Cl` [Compound 2.013], the “percentage damage caused to the plant, ABUTH” value in assay [1] and in assay [6] was 5 (5=80-100%) throughout. The “percentage damage caused to the plant, AMARE” value in [2] and in assay [7] was 5 (5=80-100%) throughout. Moreover, the “percentage damage caused to the plant, ECHCG” value in assay [3] and in assay [8] was 5 (5=80-100%) throughout. Besides, the “percentage damage caused to the plant, IPOHE” value in [4] and in assay [9] was 4 (4=60-79%) each time. Moreover, the “percentage damage caused to the plant, SETFA” value in the assay on Setaria faberi (SETFA) [5] and in the assay on Setaria faberi (SETFA) [10] was 5 (5=80-100%) each time.
Take `CCS(=O)(=O)c1c(OC(F)F)ccc(C(=O)Nc2nnc(C)o2)c1C` [Compound 2.014]: the “percentage damage caused to the plant, ABUTH” value in assay [1] and in assay [6] was 5 (5=80-100%) throughout. The “percentage damage caused to the plant, AMARE” value in assay [2] and in assay [7] was 5 (5=80-100%) each time. The “percentage damage caused to the plant, ECHCG” value in [3] and in [8] was 5 (5=80-100%) each time. For the same compound, the “percentage damage caused to the plant, IPOHE” value is given as 5 (5=80-100%) in assay [4] and 4 (4=60-79%) in assay [9]. The “percentage damage caused to the plant, SETFA” value in the assay with Setaria faberi (SETFA) [5] and in the assay on Setaria faberi (SETFA) [10] was 5 (5=80-100%) throughout.
Regarding `CCS(=O)(=O)c1c(OCC(F)(F)F)ccc(C(=O)Nc2nnc(C)o2)c1C` [Compound 2.018], the “percentage damage caused to the plant, ABUTH” value in assay [1] and in assay [6] was 5 (5=80-100%) each time. In addition, the “percentage damage caused to the plant, AMARE” value in [2] and in [7] was 5 (5=80-100%) throughout. The “percentage damage caused to the plant, ECHCG” value in [3] and in assay [8] was 5 (5=80-100%) in each case. The “percentage damage caused to the plant, IPOHE” value in [4] is listed as 4 (4=60-79%); in assay [9], 5 (5=80-100%). The “percentage damage caused to the plant, SETFA” value in the assay on Setaria faberi (SETFA) [5] and with Setaria faberi (SETFA) [10] was 5 (5=80-100%) in each case.
As for `Cn1nnnc1NC(=O)c1ccc(C(F)(F)F)c(S(C)(=O)=O)c1Cl` [Compound 4-640, reference compound], the “(%) phytotoxicity observed, DIGSA” value in the assay with DIGSA (rate 15 g/ha) and in the assay on DIGSA (rate 30 g/ha) was 80% in each case. Moreover, the “(%) phytotoxicity observed, ZEAMX” value is 40% with ZEAMX/maize (rate 15 g/ha) and 70% in the assay with ZEAMX/maize (rate 30 g/ha). Moreover, the “(%) phytotoxicity observed, IPOHE” value with IPOHE (rate 15 g/ha) and in the assay with IPOHE (rate 30 g/ha) was 90% each time. The “(%) phytotoxicity observed, ECHCG” value turned out to be 80% in the assay with ECHCG (rate 15 g/ha) and 90% in the assay with ECHCG (rate 30 g/ha). Besides, the “(%) phytotoxicity observed, SETFA” value in the assay on SETFA (rate 15 g/ha) and in the assay with SETFA (rate 30 g/ha) was 90% throughout. Besides, the “(%) phytotoxicity observed, ABUTH” value with ABUTH (rate 15 g/ha) and in the assay on ABUTH (rate 30 g/ha) was 90% throughout. The “(%) phytotoxicity observed, AMARE” value in the assay on AMARE (rate 15 g/ha) and in the assay with AMARE (rate 30 g/ha) was 90% each time.
